Data published in patent US12600726B2, “Antagonists of the muscarinic acetylcholine receptor M4” (Vanderbilt University, priority 2017, dated 2026).

Key:
Mouse M4 = biological target: T1, Mouse M4 (Mus musculus, UniProt P32211); test: mAChR M4 cell-based functional calcium flux assay (mouse M4/Gqi5/CHO cells); conditions: for Emin (mouse M4): % ACh maximum at 30 μM
T1 construct: expressed in transfected cells; host or cells: CHO-K1 (ATCC), stably expressing M4 and Gqi5
T1 sequence (P32211 1-479): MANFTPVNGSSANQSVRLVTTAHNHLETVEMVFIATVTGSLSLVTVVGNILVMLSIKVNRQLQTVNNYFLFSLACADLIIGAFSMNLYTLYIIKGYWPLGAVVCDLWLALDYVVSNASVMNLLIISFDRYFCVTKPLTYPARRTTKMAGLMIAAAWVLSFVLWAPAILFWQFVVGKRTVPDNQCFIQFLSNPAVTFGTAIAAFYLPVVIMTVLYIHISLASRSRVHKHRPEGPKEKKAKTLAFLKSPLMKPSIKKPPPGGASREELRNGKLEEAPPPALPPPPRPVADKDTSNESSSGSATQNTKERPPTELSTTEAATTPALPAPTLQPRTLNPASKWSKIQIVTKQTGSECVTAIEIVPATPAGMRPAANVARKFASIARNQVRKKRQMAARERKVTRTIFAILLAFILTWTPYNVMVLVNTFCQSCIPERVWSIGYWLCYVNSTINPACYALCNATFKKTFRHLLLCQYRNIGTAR
Experimental: Human, rat, or mouse M4. cDNA, along with the chimeric G protein Gqi5, were transfected into Chinese hamster ovary (CHO-K1) cells purchased from the American Type Culture Collection using Lipofectamine2000. M4/Gqi5/CHO cells were grown in Ham's F-12 medium containing 10% heat-inactivated fetal bovine serum (FBS), 20 mM HEPES, 500 μg/mL G418 sulfate, and 200 μg/mL Hygromycin B.
For high throughput measurement of agonist-evoked increases in intracellular calcium, CHO-K1 cells stably expressing muscarinic receptors were plated in growth medium lacking G418 and hygromycin at 15,000 cells/20 μL/well in Greiner 384-well black-walled, tissue culture (TC)-treated, clear-bottom plates (VWR). Cells were incubated overnight at 37° C. and 5% CO2. The next day, cells were washed using an ELX 405 (BioTek) with assay buffer; the final volume was then aspirated to 20 μL. Next, 20 μL of a 2.3 μM stock of Fluo-4/acetoxymethyl ester (Invitrogen, Carlsbad, CA), prepared as a 2.3 mM stock in DMSO and mixed in a 1:1 ratio with 10% (w/v) Pluronic F-127 and diluted in assay buffer, was added to the wells and the cell plates were incubated for 50 min at 37° C. and 5% CO2. Dye was removed by washing with the ELX 405 and the final volume was aspirated to 20 μL. Compound master plates were formatted in a 10 point concentration-response curve (CRC) format (1:3 dilutions) in 100% DMSO with a starting concentration of 10 or 1 mM using a BRAVO liquid handler (Agilent). Test compound CRCs were then transferred to daughter plates (240 nL) using the Echo acoustic plate reformatter (Labcyte, Sunnyvale, CA) and then diluted into assay buffer (40 μL) to a 2× stock using a Thermo Fisher Combi (Thermo Fisher Scientific, Waltham, MA).
Calcium flux was measured using the Functional Drug Screening System (FDSS) 6000 or 7000 (Hamamatsu Corporation, Tokyo, Japan) as an increase in the fluorescent static ratio. Compounds were applied to cells (20 μL, 2×) using the automated system of the FDSS at 2 seconds into the protocol and the data were collected at 1 Hz. At 143 s, 10 μL of an EC20 concentration of the muscarinic receptor agonist acetylcholine was added (5×), followed by the addition of 12 μL of an EC80 concentration of acetylcholine at the 268 s time point (5×). Agonist activity was analyzed as a concentration-dependent increase in calcium mobilization upon compound addition. Positive allosteric modulator activity was analyzed as a concentration-dependent increase in the EC20 acetylcholine response. Antagonist activity was analyzed as a concentration-dependent decrease in the EC80 acetylcholine response; for the purposes of the tables herein, an IC50 (inhibitory concentration 50) was calculated as a concentration-dependent decrease of the response elicited by an EC80 concentration of acetylcholine. Concentration-response curves were generated using a four-parameter logistical equation in XLFit curve fitting software (IDBS, Bridgewater, NJ) for Excel (Microsoft, Redmond, WA) or Prism (GraphPad Software, Inc., San Diego, CA) or the Dotmatics software platform (Dotmatics, Bishop's Stortford, UK).
Compounds were synthesized as described above. Activity (IC50 and Emin) was determined in the mAChR M4 cell-based functional assay as described above and the data are shown in Table 2 and Table 3. The compound number corresponds to the compound numbers used in the examples and Tables 1 and 1.1.

[1] = test system: haloperidol-induced catalepsy; test: haloperidol-induced catalepsy, a model of parkinsonian motor disability; format: in vivo, mice
Text: Furthermore, haloperidol-induced catalepsy, a model of parkinsonian motor disability, is reduced in M4 knockout mice as compared to wild-type controls. […] The reversal by scopolamine was uncommonly robust and more pronounced than we observe with agents targeting a number of other targets being evaluated for potential antiparkinsonian effects, including metabotropic glutamate (mGlu) receptors mGlu4 or mGlu5, A2A adenosine receptors, and NMDA receptors. […] Taken together with the extensive studies of M4 modulation of basal ganglia and motor function, these studies provide compelling evidence that M4 is the dominant mAChR subtype involved in the antiparkinsonian effects of non-selective mAChR antagonists and provide support for discovery and development of selective M4 antagonists for treatment of neurodegenerative disease such as PD, dystonia, tardive dyskinesia and other movement disorders.

[2] = decrease of the response to an EC80 concentration of acetylcholine

Compound	Emin (mouse M4) (Mouse M4) [%]	IC50 (Mouse M4; [2]) [µM]	IC50 (Mouse M4; in μM, decrease of the EC80 acetylcholine response) [µM]	reduction of haloperidol-induced catalepsy ([1]; M4 KO mice)	reversal of haloperidol-induced catalepsy ([1]; WT mice)
CC(C)(C)CCN1CCC2(CC1)CC2CNc1ccc(N2CCCCC2)nn1 (stereo not shown) [Compound 78, N-[[6-(3,3-dimethylbutyl)-6-azaspiro[2.5]octan-2-yl]methyl]-6-(1-piperidyl)pyridazin-3-amine]	8	1.24			
Fc1ccc(Cl)c(-c2ccc(OCC3CC34CCN(CC3CC5C=CC3C5)CC4)nn2)c1 (stereo not shown) [Compound 86, 6-(5-bicyclo[2.2.1]hept-2-enylmethyl)-2-[[6-(2-chloro-5-fluoro-phenyl)pyridazin-3-yl]oxymethyl]-6-azaspiro[2.5]octane]	3	2.81			
CC(C)(C)CCN1CCC2(CC1)CC2CNc1ccc2nccn2n1 (stereo not shown) [Compound 102, N-[[6-(3,3-dimethylbutyl)-6-azaspiro[2.5]octan-2-yl]methyl]imidazo[1,2-b]pyridazin-6-amine]	8	1.29			
C1=CC2CC1CC2CN1CCC2(CC1)CC2CNc1ccc2nncn2n1 (stereo not shown) [Compound 103, N-[[6-(5-bicyclo[2.2.1]hept-2-enylmethyl)-6-azaspiro[2.5]octan-2-yl]methyl]-[1,2,4]triazolo[4,3-b]pyridazin-6-amine]	13	1.5			
CN1[C@@H]2C[C@@H](OC(=O)[C@H](CO)c3ccccc3)C[C@H]1[C@@H]1O[C@@H]12 [scopolamine]				ineffective	completely reversed

More lines, main results first:

Emin (mouse M4) (Mouse M4) [%]	IC50 (Mouse M4; [2]) [µM]	IC50 (Mouse M4; in μM, decrease of the EC80 acetylcholine response) [µM]	Compound	reduction of haloperidol-induced catalepsy ([1]; M4 KO mice)	reversal of haloperidol-induced catalepsy ([1]; WT mice)
17	2.82		CC(C)(C)CCN1CCC2(CC1)CC2CNc1ccc2nncn2n1 (stereo not shown) [Compound 104, N-[[6-(3,3-dimethylbutyl)-6-azaspiro[2.5]octan-2-yl]methyl]-[1,2,4]triazolo[4,3-b]pyridazin-6-amine]		
37		> 10	c1cc2nncn2nc1NCC1CC12CCN(CC1CCCCC1)CC2 (stereo not shown) [Compound 105, N-[[6-(cyclohexylmethyl)-6-azaspiro[2.5]octan-2-yl]methyl]-[1,2,4]triazolo[4,3-b]pyridazin-6-amine]		
9	0.68		Fc1ccc(Cl)c(-c2ccc(NC[C@@H]3CC34CCN(CC3CCCOC3)CC4)nn2)c1 (stereo partly drawn) [Compound 106, (R)-6-(2-chloro-5-fluoro-phenyl)-N-[[6-(tetrahydropyran-3-ylmethyl)-6-azaspiro[2.5]octan-2-yl]methyl]pyridazin-3-amine]		
